Source: patent publication US20130095059A1, “INHALED NO DONOR KMUPS DERIVATIVE PREVENTING ALLERGIC PULMONARY VASCULAR AND BRONCHIAL INFLAMMATION VIA SUPPRESSED CYTOKINES, INOS AND INFLAMMATORY CELL COUNTS IN ASTHMA MODEL” (priority 2007, published 2013)

Key:
5-HT2A receptor = target: T1, 5-HT2A receptor (Homo sapiens, UniProt P28223); assay: Displacement of radioligand binding, 5-HT2A; details: [^3H]-ketanserin, human recombinant CHO-K1 cells
T1 construct: full length clones of 5-HT2A, 5-HT2B and 5-HT2C receptor were prepared from CHO-K1 cells; expressed in transfected cells; host or cells: CHO-K1
T1 sequence (P28223 whole entry): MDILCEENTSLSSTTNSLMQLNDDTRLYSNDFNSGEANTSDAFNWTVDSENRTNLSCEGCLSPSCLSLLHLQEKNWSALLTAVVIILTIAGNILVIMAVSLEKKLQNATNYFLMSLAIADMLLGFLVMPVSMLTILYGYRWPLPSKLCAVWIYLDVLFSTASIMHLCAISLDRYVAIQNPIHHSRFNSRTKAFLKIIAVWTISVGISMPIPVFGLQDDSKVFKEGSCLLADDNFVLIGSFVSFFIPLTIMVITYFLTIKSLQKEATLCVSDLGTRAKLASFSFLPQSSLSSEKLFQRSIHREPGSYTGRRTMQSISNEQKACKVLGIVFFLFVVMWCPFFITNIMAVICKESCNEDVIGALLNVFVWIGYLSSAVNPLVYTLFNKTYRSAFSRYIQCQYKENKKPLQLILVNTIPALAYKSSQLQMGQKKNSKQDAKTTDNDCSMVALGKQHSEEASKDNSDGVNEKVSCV
Experimental: (§1) Displacement of Radioligand Binding Assay
(§2) As described previously, full length clones of 5-HT2A, 5-HT2B and 5-HT2C receptor were prepared from CHO-K1 cells. […] IC50 represents the concentration of competing ligand which displaces 50% of the specific binding of the radioligand. Ki values for competition curves were calculated using the Cheng-Prusoff equation (Cheng, 2001).

5-HT2B receptor = target: T2, 5-HT2B receptor (Homo sapiens, UniProt P41595); assay: Displacement of radioligand binding, 5-HT2B
T2 construct: full length clones of 5-HT2A, 5-HT2B and 5-HT2C receptor were prepared from CHO-K1 cells; expressed in transfected cells; host or cells: CHO-K1
T2 sequence (P41595 whole entry): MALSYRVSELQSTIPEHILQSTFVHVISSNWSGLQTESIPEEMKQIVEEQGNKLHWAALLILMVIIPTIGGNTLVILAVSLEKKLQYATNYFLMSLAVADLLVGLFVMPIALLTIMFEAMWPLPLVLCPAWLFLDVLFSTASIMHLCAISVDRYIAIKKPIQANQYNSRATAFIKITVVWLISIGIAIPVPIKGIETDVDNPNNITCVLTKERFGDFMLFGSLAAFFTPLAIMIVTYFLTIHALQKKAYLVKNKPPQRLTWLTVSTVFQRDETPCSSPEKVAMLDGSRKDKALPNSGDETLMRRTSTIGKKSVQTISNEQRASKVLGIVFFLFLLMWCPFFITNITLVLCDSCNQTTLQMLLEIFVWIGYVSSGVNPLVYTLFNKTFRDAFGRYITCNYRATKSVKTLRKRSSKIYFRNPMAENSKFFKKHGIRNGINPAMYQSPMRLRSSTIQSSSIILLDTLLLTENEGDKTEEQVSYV
Experimental: as §1, §2

5-HT2C receptor = target: T3, 5-HT2C receptor (Homo sapiens, UniProt P28335); assay: Displacement of radioligand binding, 5-HT2C; details: [^3H]-mesulergine, human recombinant CHO-K1 cells
T3 construct: full length clones of 5-HT2A, 5-HT2B and 5-HT2C receptor were prepared from CHO-K1 cells; expressed in transfected cells; host or cells: CHO-K1
T3 sequence (P28335 33-458): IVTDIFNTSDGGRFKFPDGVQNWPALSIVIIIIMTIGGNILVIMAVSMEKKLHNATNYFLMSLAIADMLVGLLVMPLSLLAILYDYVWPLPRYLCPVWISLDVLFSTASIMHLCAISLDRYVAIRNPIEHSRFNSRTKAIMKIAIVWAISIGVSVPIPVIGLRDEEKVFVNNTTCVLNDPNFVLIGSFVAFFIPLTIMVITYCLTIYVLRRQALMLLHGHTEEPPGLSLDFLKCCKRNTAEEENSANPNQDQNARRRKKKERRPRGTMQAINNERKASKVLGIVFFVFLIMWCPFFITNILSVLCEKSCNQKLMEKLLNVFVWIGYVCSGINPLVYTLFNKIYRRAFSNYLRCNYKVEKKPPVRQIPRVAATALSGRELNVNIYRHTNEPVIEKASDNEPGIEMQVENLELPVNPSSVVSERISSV
Experimental: as §1, §2

[1] = MCT-induced chronic PAH, mean pulmonary arterial pressure; type: in vivo, Wistar rats; details: 5 mg/kg/day p.o. and 1 mg/kg/day i.p. for 21 days
Experimental: (§3) The experiments were performed in adult male Wistar rats (300 to 350 g) in accordance with institutional guidelines after approval by the ethical review committee. PAH development and pulmonary expression of 5-HTT were examined in rats after 60 mg/kg single injection (i.p.) of monocrotaline (MCT). To assess the potential preventive effect of KMUP-1 on MCT-induced PAH and associated proliferation, we assigned rats at random to 2 groups of 8 animals which received KMUP-1 at 5 mg/kg/day p.o or 1 mg/kg/day i.p. All treatments were given once a day for 3 weeks after a single MCT injection (60 mg/kg i.p.) (Abe et al., 2004). On day 21, rats were anesthetized and pulmonary artery blood pressure (MPAP) was recorded as previously described. Lung tissues were dissected for Western blotting and immunohistochemistry.

5-HT = assay: Plasma 5-HT levels in MCT-treated rats (Serotonin EIA); type: in vivo, Wistar rats; details: MCT-PAH rats, non-treated MCT-PAH 4.2±0.7
Experimental: as §3
After MCT-treatment, rats acquired severe PAH and received sodium pentobarbital (40 mg/kg, i.p.) at day 21 for surgical anesthesia and measurement of MPAP (Chung et al., 2010). Blood samples (1.0 mL) were obtained from the heart. Blood was transferred to plastic tubes that included EDTA and was centrifuged at 100 g for 20 min. The plasma was transferred to tubes and stored at −80° C. until analysis. Plasma 5-HT levels were determined using commercially available Serotonin EIA (IBL, Minneapolis, USA). […] Results were read from a standard curve. […]

RhoA = assay: 5-HT-induced RhoA translocation in PASMCs; type: cell-based, Wistar rats; details: 24 h treatment, 1-100 μM
Experimental: Previous reports have shown that the active form of RhoA is translocated from the cytosol to the plasma membrane, where it activates Rho kinase. Therefore, the membrane/cytosol ratio of RhoA is considered a measure of RhoA activity. The cytosol and membrane protein of PASMCs were extracted with a CNM (cytosol, nuclear, membrane) kit. To assess membrane trans-location of RhoA, protein in membrane and cytosolic fractions was determined by standard Western blot analysis using mouse monoclonal anti-RhoA antibody (1:1000 dilution, Santa Cruz Biotechnology) and a peroxidase-labeled anti-mouse immunoglobulin (Ig) G antibody (1:1000 dilution, Santa Cruz Biotechnology, CA, USA). The relative density of membrane to cytosolic RhoA was determined using NIH imaging software.
(§4) The expression of RhoA/ROCK and phosphorylation of ERK1/2 and AKT kinase in PASMCs were assessed by incubating the PASMCs with 5-HT (10 μM) for 15 min (peak time for RhoA/ROCK, ERK1/2 and AKT phosphorylation) and 5-HTT for 10 min (peak time for 5-HTT) after KMUP-1 (1-100 μM) was added to the culture of PASMCs for 24 h.

AKT = assay: 5-HT-induced AKT phosphorylation in PASMCs; type: cell-based, Wistar rats; details: 1-100 μM, 24 h pre-incubation
Experimental: PASMCs were stimulated with 5-HT or not, as indicated. Cells were treated with KMUP-1 for 24 h before 5-HT stimulation. Whole lysates were collected and resolved by SDS-PAGE as previously described. Primary antibodies were anti-β-actin at: 1:10,000 dilution and anti-RhoA, anti-ROCK, antiphospho-ERK1/2, anti-phospho-AKT, anti-ERK1/2, anti-AKT, anti-5HTT, anti-5-HT2B and anti-eNOS at 1:1000. All blots were incubated with antibodies at 4° C. overnight. After being washed, the appropriate secondary antibodies were added at a dilution of 1:1000 for 1 h at room temperature. After extensive washing, blots were developed with a Super Signal enhanced chemiluminescence kit (Biorad, CA, USA) and visualized on Kodak AR film.
as §4

eNOS = assay: Expression of eNOS in HPAEC; type: cell-based, human
Experimental: HPAEC purchased from ATCC were maintained in humidified incubator containing 5% CO2 at 37° C. HPAEC were cultured in F-12 supplemented with 10% fetal bovine serum. The culture medium was changed every 3 days and cells were subcultured until confluence. HPAEC were harvested with a solution of trypsin-EDTA (GIBCO BRL, NY, USA) while in a logarithmic phase of growth. HPAEC were used between passages 4-8.
To measure the expression of eNOS and 5-HT2B receptor in HPAEC after incubation with KMUP-1 (1-100 μM) for 24 h, whole lysates were collected for Western blotting assay. The relative density was determined using NIH imaging software.

Structure (SMILES): Cn1c(=O)c2c(ncn2CCN2CCN(c3ccccc3Cl)CC2)n(C)c1=O [KMUP-1, 7-[2-[4-(2-chlorophenyl)piperazinyl]ethyl]-1,3-dimethylxanthine]
- IC50 (5-HT2A receptor): 340 nM
- Ki (5-HT2A receptor; Cheng-Prusoff): 97.1 nM
- ligand specificity of 5-HT2B receptor versus 5-HT2A and 5-HT2C receptors (5-HT2B receptor): more selective
- IC50 (5-HT2B receptor; [^3H]-LSD, human recombinant CHO-K1 cells): 40 nM
- Ki (5-HT2B receptor; [^3H]-LSD, human recombinant CHO-K1 cells, Cheng-Prusoff): 25.4 nM
- IC50 (5-HT2C receptor): 408 nM
- Ki (5-HT2C receptor; Cheng-Prusoff): 214 nM
- MCT-induced increases in mean pulmonary arterial pressure (MPAP) [1]: significantly reduced
- plasma concentration of 5-HT (5-HT; 1 mg/kg i.p.): 3.2 ± 0.6 ng/mL
- plasma concentration of 5-HT (5-HT; 5 mg/kg p.o.): 3.2 ± 0.5 ng/mL
- 5-HT-induced RhoA membrane association (RhoA): dose-dependently reversed
- 5-HT-stimulated AKT phosphorylation (AKT): concentration-dependently reduced
- expression of eNOS compared to 5-HT treatment alone (eNOS; 10 μM, 24 h before adding 5-HT): raised
- eNOS expression in cultured HPAEC (eNOS; 1-100 μM, 24 h): dose-dependently increased
